Consider 1 compound from article PMC7824442, “In Escherichia coli Ammonia Inhibits Cytochrome bo3 But Activates Cytochrome bd-I” (Antioxidants, 2020).

The target in assay [1] is T1, cytochrome bd-I (Escherichia coli, UniProt P0ABJ9).
T1 construct: gene cydA; isolated cytochrome bd-I; with other subunits of the four-subunit cytochrome bd-I complex
As to the kind of experiment: UV-visible absorption titration of the isolated oxidized enzyme at pH […] (Soret region, […] nm); activation of O2 reductase activity also shown. Type of assay: binding.

Assay [2] has as its target T2, cytochrome bo3 (Escherichia coli, UniProt P0ABI8).
T2 construct: gene cyoB; isolated four-subunit His-tagged cytochrome bo3; with other subunits of the four-subunit cytochrome bo3 complex
The assay can be described thus: UV-visible absorption titration of the isolated oxidized enzyme at pH […] (Soret region, […] nm); inhibition of O2 reductase activity also shown. The class given is binding.

As a reminder, the Kd is the constant that tells how readily two partners part at equilibrium. A higher Kd goes with weaker binding.

Molecules are shown by their SMILES.

T1 sequence (P0ABK2 whole entry): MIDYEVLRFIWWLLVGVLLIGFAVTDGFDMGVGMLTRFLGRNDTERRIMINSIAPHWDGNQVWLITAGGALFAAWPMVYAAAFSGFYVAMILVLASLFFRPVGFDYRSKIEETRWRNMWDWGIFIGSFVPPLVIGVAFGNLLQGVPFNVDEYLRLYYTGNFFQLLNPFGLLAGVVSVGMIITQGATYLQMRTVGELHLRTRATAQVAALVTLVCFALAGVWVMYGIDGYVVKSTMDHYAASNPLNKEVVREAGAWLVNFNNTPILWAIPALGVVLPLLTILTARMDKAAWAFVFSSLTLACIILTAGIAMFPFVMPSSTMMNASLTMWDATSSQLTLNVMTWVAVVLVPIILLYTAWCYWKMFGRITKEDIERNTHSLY
T1 sequence (P0ABJ9 whole entry): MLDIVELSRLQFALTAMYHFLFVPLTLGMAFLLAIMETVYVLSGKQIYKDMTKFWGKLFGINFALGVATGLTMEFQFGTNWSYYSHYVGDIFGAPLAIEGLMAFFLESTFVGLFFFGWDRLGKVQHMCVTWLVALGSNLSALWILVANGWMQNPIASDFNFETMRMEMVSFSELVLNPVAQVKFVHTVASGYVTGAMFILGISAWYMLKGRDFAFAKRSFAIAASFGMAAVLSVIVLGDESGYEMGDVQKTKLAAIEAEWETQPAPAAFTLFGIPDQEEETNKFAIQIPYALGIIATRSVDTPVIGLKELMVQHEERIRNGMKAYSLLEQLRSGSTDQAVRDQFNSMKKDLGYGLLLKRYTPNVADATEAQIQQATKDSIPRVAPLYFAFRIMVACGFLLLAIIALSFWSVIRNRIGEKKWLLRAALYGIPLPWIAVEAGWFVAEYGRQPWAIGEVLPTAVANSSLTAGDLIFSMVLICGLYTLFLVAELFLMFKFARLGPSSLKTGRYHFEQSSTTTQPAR
T2 sequence (P0ABJ1 25-315): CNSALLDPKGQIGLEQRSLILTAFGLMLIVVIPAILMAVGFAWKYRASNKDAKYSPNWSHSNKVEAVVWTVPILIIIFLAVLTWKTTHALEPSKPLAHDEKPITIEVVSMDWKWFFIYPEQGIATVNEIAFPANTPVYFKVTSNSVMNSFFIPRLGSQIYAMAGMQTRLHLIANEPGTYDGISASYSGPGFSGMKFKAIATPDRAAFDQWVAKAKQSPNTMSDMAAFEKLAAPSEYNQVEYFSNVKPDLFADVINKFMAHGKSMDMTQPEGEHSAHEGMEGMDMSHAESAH
T2 sequence (P0ABJ6 whole entry, further chain): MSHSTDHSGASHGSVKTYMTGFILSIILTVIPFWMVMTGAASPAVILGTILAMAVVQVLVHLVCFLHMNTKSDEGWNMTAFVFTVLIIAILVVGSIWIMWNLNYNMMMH
T2 sequence (P0ABI8 whole entry): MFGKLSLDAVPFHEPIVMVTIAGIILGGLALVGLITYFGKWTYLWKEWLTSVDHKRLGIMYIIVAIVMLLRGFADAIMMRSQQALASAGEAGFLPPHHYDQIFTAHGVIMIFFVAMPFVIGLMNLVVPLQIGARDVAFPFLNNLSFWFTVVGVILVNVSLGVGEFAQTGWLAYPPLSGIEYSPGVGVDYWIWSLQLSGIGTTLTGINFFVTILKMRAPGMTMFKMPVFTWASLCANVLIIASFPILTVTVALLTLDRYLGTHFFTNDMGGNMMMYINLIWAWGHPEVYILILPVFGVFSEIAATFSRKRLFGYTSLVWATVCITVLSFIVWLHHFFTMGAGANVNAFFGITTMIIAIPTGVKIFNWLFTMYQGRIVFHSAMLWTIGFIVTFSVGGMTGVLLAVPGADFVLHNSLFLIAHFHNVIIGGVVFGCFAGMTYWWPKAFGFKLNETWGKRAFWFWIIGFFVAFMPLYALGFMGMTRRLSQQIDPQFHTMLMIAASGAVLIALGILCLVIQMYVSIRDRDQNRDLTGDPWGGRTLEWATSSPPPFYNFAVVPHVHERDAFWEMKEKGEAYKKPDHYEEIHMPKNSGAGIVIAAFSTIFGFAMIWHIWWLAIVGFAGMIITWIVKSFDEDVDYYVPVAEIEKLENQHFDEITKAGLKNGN
T2 sequence (P0ABJ3 whole entry, further chain): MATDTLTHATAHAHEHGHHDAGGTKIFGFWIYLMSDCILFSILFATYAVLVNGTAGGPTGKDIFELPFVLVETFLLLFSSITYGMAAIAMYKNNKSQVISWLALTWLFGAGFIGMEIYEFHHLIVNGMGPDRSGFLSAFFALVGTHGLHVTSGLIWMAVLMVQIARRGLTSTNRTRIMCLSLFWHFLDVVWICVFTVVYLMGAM

For `N` [ammonia], the Kd in assay [1] was 7.2 ± 1.4 mM; in assay [2], 4.9 ± 0.5 mM.
